In PubChem BioAssay (NCI):
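Briefly, cells in 96-well plates were exposed to five compound concentrations for 48 h, and endpoints were estimated by linear interpolation. TGI: total growth inhibition.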

How the values were obtained:
Assay in all cases: NCI-60 cell line screen, 48 h
UO-31 renal = tested on: UO-31 renal
UACC-257 melanoma = tested on: UACC-257 melanoma
MDA-N = tested on: MDA-N
SK-OV-3 ovarian = tested on: SK-OV-3 ovarian
COLO 205 colon = tested on: COLO 205 colon
MCF7 breast = tested on: MCF7 breast
HOP-62 NSCLC = tested on: HOP-62 NSCLC
PC-3 prostate = tested on: PC-3 prostate
HCC-2998 colon = tested on: HCC-2998 colon
HCT-15 colon = tested on: HCT-15 colon
MDA-MB-435 = tested on: MDA-MB-435
T-47D breast = tested on: T-47D breast
HS 578T breast = tested on: HS 578T breast
A549 NSCLC = tested on: A549 NSCLC
HL-60(TB) leukemia = tested on: HL-60(TB) leukemia
SK-MEL-5 melanoma = tested on: SK-MEL-5 melanoma
HOP-92 NSCLC = tested on: HOP-92 NSCLC
HT29 colon = tested on: HT29 colon
LOX IMVI melanoma = tested on: LOX IMVI melanoma
NCI-H460 lung = tested on: NCI-H460 lung
OVCAR-8 ovarian = tested on: OVCAR-8 ovarian
SN12C renal = tested on: SN12C renal
UACC-62 melanoma = tested on: UACC-62 melanoma
NCI-H226 lung = tested on: NCI-H226 lung
HCT-116 colon = tested on: HCT-116 colon
EKVX NSCLC = tested on: EKVX NSCLC
CCRF-CEM leukemia = tested on: CCRF-CEM leukemia
OVCAR-5 ovarian = tested on: OVCAR-5 ovarian
RXF 393 renal = tested on: RXF 393 renal
OVCAR-4 ovarian = tested on: OVCAR-4 ovarian
ACHN renal = tested on: ACHN renal
OVCAR-3 ovarian = tested on: OVCAR-3 ovarian
NCI-H23 lung = tested on: NCI-H23 lung
DU-145 prostate = tested on: DU-145 prostate
IGROV1 ovarian = tested on: IGROV1 ovarian
TK-10 renal = tested on: TK-10 renal
SF-268 CNS = tested on: SF-268 CNS
RPMI-8226 leukemia = tested on: RPMI-8226 leukemia
SK-MEL-28 melanoma = tested on: SK-MEL-28 melanoma
SF-539 CNS = tested on: SF-539 CNS
M14 melanoma = tested on: M14 melanoma
NCI/ADR-RES ovarian = tested on: NCI/ADR-RES ovarian
CAKI-1 renal = tested on: CAKI-1 renal
BT-549 breast = tested on: BT-549 breast
K-562 leukemia = tested on: K-562 leukemia
MOLT-4 leukemia = tested on: MOLT-4 leukemia
SR leukemia = tested on: SR leukemia
SNB-75 CNS = tested on: SNB-75 CNS
SW-620 colon = tested on: SW-620 colon
A498 renal = tested on: A498 renal
KM12 colon = tested on: KM12 colon
NCI-H522 lung = tested on: NCI-H522 lung
MDA-MB-231 breast = tested on: MDA-MB-231 breast
786-0 renal = tested on: 786-0 renal
SK-MEL-2 melanoma = tested on: SK-MEL-2 melanoma
U251 CNS = tested on: U251 CNS
SF-295 CNS = tested on: SF-295 CNS
MALME-3M melanoma = tested on: MALME-3M melanoma
SNB-19 CNS = tested on: SNB-19 CNS

For COC(=O)c1c(C)cccc1C1CN=NC12Cc1c(C)cccc1C2=O (centres undefined), the TGI (UO-31 renal) was > 100 µM, the TGI (UACC-257 melanoma) was > 100 µM and the TGI (MDA-N) was > 100 µM. For the same compound, the TGI (SK-OV-3 ovarian) was > 100 µM, the TGI (COLO 205 colon) was > 100 µM and the TGI (MCF7 breast) was > 100 µM. For the same compound, the TGI (HOP-62 NSCLC) was > 100 µM, the TGI (PC-3 prostate) was > 100 µM and the TGI (HCC-2998 colon) was > 100 µM. For the same compound, the TGI (HCT-15 colon) was > 100 µM, the TGI (MDA-MB-435) was > 100 µM and the TGI (T-47D breast) was > 100 µM. The TGI (HS 578T breast) was > 100 µM, the TGI (A549 NSCLC) was > 100 µM and the TGI (HL-60(TB) leukemia) was > 100 µM. For the same compound, the TGI (SK-MEL-5 melanoma) was > 100 µM, the TGI (HOP-92 NSCLC) was > 100 µM and the TGI (HT29 colon) was > 100 µM. The TGI (LOX IMVI melanoma) was > 100 µM, the TGI (NCI-H460 lung) was > 100 µM and the TGI (OVCAR-8 ovarian) was > 100 µM. The TGI (SN12C renal) was > 100 µM, the TGI (UACC-62 melanoma) was > 100 µM and the TGI (NCI-H226 lung) was > 100 µM. The TGI (HCT-116 colon) was > 100 µM, the TGI (EKVX NSCLC) was 79.7 µM and the TGI (CCRF-CEM leukemia) was > 100 µM. The TGI (OVCAR-5 ovarian) was > 100 µM, the TGI (RXF 393 renal) was > 100 µM and the TGI (OVCAR-4 ovarian) was > 100 µM. The TGI (ACHN renal) was > 100 µM, the TGI (OVCAR-3 ovarian) was > 100 µM and the TGI (NCI-H23 lung) was > 100 µM. For the same compound, the TGI (DU-145 prostate) was > 100 µM, the TGI (IGROV1 ovarian) was > 100 µM and the TGI (TK-10 renal) was > 100 µM. For the same compound, the TGI (SF-268 CNS) was > 100 µM, the TGI (RPMI-8226 leukemia) was > 100 µM and the TGI (SK-MEL-28 melanoma) was > 100 µM. The TGI (SF-539 CNS) was > 100 µM, the TGI (M14 melanoma) was > 100 µM and the TGI (NCI/ADR-RES ovarian) was > 100 µM. For the same compound, the TGI (CAKI-1 renal) was > 100 µM, the TGI (BT-549 breast) was > 100 µM and the TGI (K-562 leukemia) was > 100 µM. The TGI (MOLT-4 leukemia) was > 100 µM, the TGI (SR leukemia) was > 100 µM and the TGI (SNB-75 CNS) was > 100 µM. The TGI (SW-620 colon) was > 100 µM, the TGI (A498 renal) was > 100 µM and the TGI (KM12 colon) was > 100 µM. For the same compound, the TGI (NCI-H522 lung) was 91.7 µM, the TGI (MDA-MB-231 breast) was > 100 µM and the TGI (786-0 renal) was > 100 µM. For the same compound, the TGI (SK-MEL-2 melanoma) was > 100 µM, the TGI (U251 CNS) was > 100 µM and the TGI (SF-295 CNS) was > 100 µM. The TGI (MALME-3M melanoma) was > 100 µM and the TGI (SNB-19 CNS) was > 100 µM.
